The results in this text go back to patent US6706740B2, “Fungicidal heterocyclic aromatic amides and their compositions, methods of use and preparation” (Dow AgroSciences LLC, priority 1999, dated 2004).

Where two headings read alike, the source gives them in different places.

As usually defined, the inhibition is the share of the control response that was lost under treatment.

For test [1], the system named is Phytophthora infestans—PHYTIN. Kind of test: whole plant or invertebrate. It is filed as in vivo. As to conditions: Phytophthora, in Solanum lycopersicum, 24 h, read-out: PHYTIN in vivo 1 Day Protectant.
The test system of test [2] is Phytophthora infestans (PHYTIN). The test is described as follows: microbe, parasite or virus in culture. The test is classed as cell-based. As to conditions: Phytophthora infestans, read-out: PHYTIN in vitro Growth Inhibition.
Test [3] has as its system Rhizoctonia solani (RHIZSO). The test is described as follows: microbe, parasite or virus in culture. It is filed as cell-based. As to conditions: Rhizoctonia solani, read-out: RHIZSO in vitro Growth Inhibition.
In test [4] the test system is Stagonospora nodorum (Leptosphaeria nodorum—LEPTNO). Kind of test: In vitro fungal growth inhibition, Stagonospora nodorum (LEPTNO). The test is classed as cell-based. As to conditions: Leptosphaeria, read-out: LEPTNO in vitro Growth Inhibition.
For test [5], the system named is Magnaporthe grisea (Pyricularia oryzae—PYRIOR). Kind of test: microbe, parasite or virus in culture. It is filed as cell-based. Conditions: Pyricularia oryzae, read-out: PYRIOR in vitro Growth Inhibition.
The subject of test [6] is Puccinia recondita—PUCCRT. Kind of test: Brown Rust of Wheat, in vivo whole plant, 24 Hour Protectant.
The test system of the next test is Septoria tritici—SEPTTR. The test is described as follows: Leaf Blotch of Wheat, in vivo whole plant, 24 Hour Protectant.
In test [7] the test system is Leptosphaeria nodorum—LEPTNO. The test is described as follows: Glume Blotch of Wheat, in vivo whole plant, 24 Hour Protectant.
The subject of test [8] is Mycosphaerella graminicola (Septoria tritici—SEPTTR). Kind of test: In vitro fungal growth inhibition, Mycosphaerella graminicola (SEPTTR). The test is classed as cell-based. As to conditions: Zymoseptoria tritici, read-out: SEPTTR in vitro Growth Inhibition.
Another test concerns Erysiphe graminis—ERYSGT. Kind of test: Powdery Mildew of Wheat, in vivo whole plant, 24 Hour Protectant.
Another test relates to Ustilago maydis (USTIMA). Kind of test: microbe, parasite or virus in culture. The test is classed as cell-based. Conditions: Mycosarcoma maydis, read-out: USTIMA in vitro Growth Inhibition.
[9] abbreviates: Puccinia; 100 ppm spray, wheat, 24 hour protectant; control of fungal infection vs untreated plants; read-out: PUCCRT in vivo 1 Day Protectant.
Where [10] appears, read: 100 ppm spray, wheat, 24 hour protectant; control of fungal infection vs untreated plants.
The mark [11] stands for this setting: Leptosphaeria; 100 ppm spray, wheat, 24 hour protectant; control of fungal infection vs untreated plants; read-out: LEPTNO in vivo 1 Day Protectant.
[12] abbreviates: Erysiphe; 100 ppm spray, wheat, 24 hour protectant; control of fungal infection vs untreated plants; read-out: ERYSGT in vivo 1 Day Protectant.
Where [13] appears, read: Zymoseptoria tritici, 24 h, 100 ppm spray, wheat, 24 hour protectant; control of fungal infection vs untreated plants; read-out: SEPTTR in vivo 1 Day Protectant.

With `COc1ccnc(C(=O)N[C@@H]2C[C@@H](O[Si](C)(C)C(C)(C)C)O[C@@H](C)[C@@H]2OC)c1O` [Compound 326], the pest or weed control at 100 ppm in test [1] was less than 25%; in [6] (Puccinia; 100 ppm spray, 24 hour protectant, wheat; control of fungal infection vs untreated plants; read-out: PUCCRT in vivo 1 Day Protectant), less than 25%; in [7] (Leptosphaeria; 100 ppm spray, 24 hour protectant, wheat; control of fungal infection vs untreated plants; read-out: LEPTNO in vivo 1 Day Protectant), 25 to 74%; with Erysiphe graminis—ERYSGT (Erysiphe; 100 ppm spray, 24 hour protectant, wheat; control of fungal infection vs untreated plants; read-out: ERYSGT in vivo 1 Day Protectant) it was less than 25%. In addition, the inhibition at 25 ppm (in test [2]; in test [3]; in [4]; in [5]; in test [8]; in the test on Ustilago maydis (USTIMA)) was less than 80% each time. In addition, the “SEPTTR in vivo 1 Day Protectant” value in the test with Septoria tritici—SEPTTR (100 ppm spray, 24 hour protectant, wheat; control of fungal infection vs untreated plants) is “+ +”.

Take `COc1ccnc(C(=O)N[C@@H]2C[C@@H](O[Si](C)(C)C(C)(C)C)O[C@@H](C)[C@@H]2OCc2ccccc2)c1O` [Compound 327]: the pest or weed control at 100 ppm in [1] is 25 to 74%; in test [6] (setting [9]), less than 25%; in [7] (setting [11]), 25 to 74%; in the test on Erysiphe graminis—ERYSGT (setting [12]) it was less than 25%. The inhibition at 25 ppm (in [2]; in test [3]; in test [4]; in test [5]; in test [8]; with Ustilago maydis (USTIMA)) was less than 80% throughout. In the test on Septoria tritici—SEPTTR (setting [10]), the “SEPTTR in vivo 1 Day Protectant” value was “+ +”.

In the case of `COc1ccnc(C(=O)N[C@H]2C[C@@H](O[Si](C)(C)C(C)(C)C)O[C@@H](C)[C@@H]2OCc2ccccc2)c1O` [Compound 328], the pest or weed control at 100 ppm in test [1] was less than 25%; in [6] (setting [9]) it was less than 25%; in the test with Septoria tritici—SEPTTR (setting [13]), 25 to 74%; in test [7] (setting [11]), 25 to 74%; in the test with Erysiphe graminis—ERYSGT (setting [12]) it was less than 25%. The inhibition at 25 ppm is greater than 80% in test [2]; less than 80% in test [3]; less than 80% in test [4]; less than 80% in [5]; less than 80% in test [8]; less than 80% in the test on Ustilago maydis (USTIMA).

`COc1ccnc(C(=O)NC2O[C@H](CO)[C@H]3OC(C)(C)O[C@@H]23)c1O` (stereo partly drawn) [Compound 329]: the pest or weed control at 100 ppm is less than 25% in test [1]; 25 to 74% in test [6] (setting [9]); 25 to 74% in the test on Septoria tritici—SEPTTR (setting [13]); 25 to 74% in test [7] (setting [11]); less than 25% in the test with Erysiphe graminis—ERYSGT (setting [12]). Also, the inhibition at 25 ppm (in test [2]; in test [3]; in [4] (25 ppm in growth medium); in [5]; in [8] (25 ppm in growth medium); with Ustilago maydis (USTIMA)) was less than 80% throughout.

Regarding `COc1ccnc(C(=O)N[C@@H]2OC[C@@H](OC(C)=O)[C@H](OC(C)=O)[C@H]2OC(C)=O)c1O` [Compound 330], the pest or weed control at 100 ppm (in test [1]; in test [6] (setting [9]); with Septoria tritici—SEPTTR (setting [13]); in test [7] (setting [11]); in the test on Erysiphe graminis—ERYSGT (setting [12])) was less than 25% each time. Besides, the inhibition at 25 ppm (in test [2]; in test [3]; in test [4] (25 ppm in growth medium); in test [5]; in test [8] (25 ppm in growth medium); in the test with Ustilago maydis (USTIMA)) was less than 80% throughout.

Consider `CCCO[C@@H]1[C@@H](OCCC)[C@H](OCCC)CO[C@H]1NC(=O)c1nccc(OC)c1O` [Compound 331], for which the pest or weed control at 100 ppm in test [1] was less than 25%; in test [6] (setting [9]) it was less than 25%; with Septoria tritici—SEPTTR (setting [13]) it was less than 25%; in [7] (setting [11]) it was 25 to 74%; in the test on Erysiphe graminis—ERYSGT (setting [12]), less than 25%. Moreover, the inhibition at 25 ppm in [2] is less than 80%; in test [3] it was less than 80%; in test [4] (25 ppm in growth medium), less than 80%; in test [5] it was greater than 80%; in test [8] (25 ppm in growth medium), less than 80%; in the test with Ustilago maydis (USTIMA), less than 80%.

For the molecule `COc1ccnc(C(=O)N[C@@H]2OC[C@@H](OCc3ccccc3)[C@H](OCc3ccccc3)[C@H]2OCc2ccccc2)c1O` [Compound 332], the pest or weed control at 100 ppm in test [1] is less than 25%; in [6] (setting [9]), less than 25%; in the test on Septoria tritici—SEPTTR (setting [13]), 25 to 74%; in test [7] (setting [11]), 25 to 74%; in the test with Erysiphe graminis—ERYSGT (setting [12]), less than 25%. Moreover, the inhibition at 25 ppm (in test [2]; in test [3]; in test [4] (25 ppm in growth medium); in [5]; in test [8] (25 ppm in growth medium); with Ustilago maydis (USTIMA)) was less than 80% each time.

For `COc1ccnc(C(=O)N[C@H]2O[C@@H](C)[C@@H](OC(C)=O)[C@@H](OC(C)=O)[C@@H]2OC(C)=O)c1O` [Compound 333], the pest or weed control at 100 ppm in test [1] is less than 25%; in test [6] (setting [9]), 25 to 74%; with Septoria tritici—SEPTTR (setting [13]) it was 25 to 74%; in test [7] (setting [11]), 25 to 74%; with Erysiphe graminis—ERYSGT (setting [12]) it was less than 25%. Further, the inhibition at 25 ppm (in test [2]; in [3]; in [4] (25 ppm in growth medium); in [5]; in test [8] (25 ppm in growth medium); with Ustilago maydis (USTIMA)) was less than 80% in each case.

`COc1ccnc(C(=O)N[C@@H]2[C@@H](O)[C@H](O)[C@@H](CO)O[C@@H]2O)c1O` [Compound 334, N-(3-HYDROXY-4-METHOXY-2-PYRIDYLCARBONYL)-2-AMINO-2-DEOXY-alpha-D-GLUCOPYRANOSE]: the pest or weed control at 100 ppm was less than 25% in [1]; less than 25% in test [6] (setting [9]); less than 25% in the test on Septoria tritici—SEPTTR (setting [13]); 25 to 74% in test [7] (setting [11]); less than 25% in the test on Erysiphe graminis—ERYSGT (setting [12]). Further, the inhibition at 25 ppm (in [2]; in test [3]; in test [4] (25 ppm in growth medium); in test [5]; in [8] (25 ppm in growth medium); in the test on Ustilago maydis (USTIMA)) was less than 80% throughout.

As to `COc1ccnc(C(=O)N[C@H]2[C@@H](OC(C)=O)O[C@H](COC(C)=O)[C@@H](OC(C)=O)[C@@H]2OC(C)=O)c1O` [Compound 335], the pest or weed control at 100 ppm in test [1] is 25 to 74%; in [6] (setting [9]), less than 25%; in the test on Septoria tritici—SEPTTR (setting [13]) it was less than 25%; in test [7] (setting [11]), 25 to 74%; with Erysiphe graminis—ERYSGT (setting [12]), less than 25%. The inhibition at 25 ppm (in test [2]; in test [3]; in [4] (25 ppm in growth medium); in test [5]; in test [8] (25 ppm in growth medium); in the test with Ustilago maydis (USTIMA)) was less than 80% each time.

For `COc1ccnc(C(=O)N[C@@H](Cc2ccc(OCc3ccccc3)cc2)C(=O)O)c1O` [Compound 337], the pest or weed control at 100 ppm was less than 25% in [1], 25 to 74% in test [6] (setting [9]), less than 25% with Septoria tritici—SEPTTR (setting [13]) and less than 25% in the test on Erysiphe graminis—ERYSGT (setting [12]). Besides, the inhibition at 25 ppm (in test [2]; in test [3]; in test [4] (25 ppm in growth medium); in test [5]; in test [8] (25 ppm in growth medium); in the test with Ustilago maydis (USTIMA)) was less than 80% throughout. The “LEPTNO in vivo 1 Day Protectant” value in test [7] (setting [10]) was “+ +”.

Take `COc1ccnc(C(=O)N[C@@H](Cc2ccc(OCc3ccccc3)cc2)C(=O)OCc2ccccc2)c1O` [Compound 339]: the pest or weed control at 100 ppm (in test [1]; in the test on Erysiphe graminis—ERYSGT (setting [12])) was less than 25% in each case. The inhibition at 25 ppm (in [2]; in test [3]; in [4] (25 ppm in growth medium); in test [5]; in test [8] (25 ppm in growth medium); with Ustilago maydis (USTIMA)) was less than 80% in each case. Besides, the “PUCCRT in vivo 1 Day Protectant” value in test [6] (setting [10]) is recorded as “+ +”. The “SEPTTR in vivo 1 Day Protectant” value in the test on Septoria tritici—SEPTTR (setting [10]) was “+ +”. Moreover, in [7] (setting [10]), the “LEPTNO in vivo 1 Day Protectant” value was “+ +”.
